{"source": "patent US20200085918A1", "about": "“COMPOSITIONS AND METHODS FOR TREATMENT OF UREMIC CARDIOMYOPATHY” (priority 2016, published 2020)", "key": {"collagen-1 [1]": {"tested_on": "collagen-1", "assay_type": "cell-based, mouse", "experimental": "(§1) Western Blotting Analysis: Cardiac (left ventricle) tissue samples and cardiac fibroblast homogenates were prepared and analyzed as was previously described for collagen-1 and other proteins. Assessment of protein carbonylation and activation of c-Src and ERK1/2 was performed as was described previously. Multiple exposures were analyzed to assure that the signals were within the linear range of the film. The signal density was determined using NIH ImageJ 1.48v software. Polyclonal antibody against type I collagen was from Southern Biotech (Birmingham, Ala.). Polyclonal anti-Src [pY418] phosphospecific antibody was from Invitrogen (Camarillo, Calif.). Monoclonal antibody against total c-Src was from Santa Cruz (Santa Cruz, Calif.). 2,4-dinitrophenylhydrazine (DNPH) and antibody against 2,4-dinitrophenyl (DNP) hydrazone derivatives were from Sigma-Aldrich.\n(§2) Experimental design for in vitro experiment: C57BL/6 mouse primary cardiac fibroblast cells (purchased from Cell Biologics, Inc., Chicago, Ill.) were resuspended in complete fibroblast medium with supplements and 10% FBS (Cell Biologics, Inc.). The cultures were maintained at 37° C. in a 5% CO2 incubator and the medium was changed after 48 h and every 2-3 days thereafter. Cardiac fibroblast cells (passage 3-4) were grown until over confluent and were serum-starved (with 1% FBS) overnight before being used for the experiments. Cells were treated with or without TCB (100 nM) to determine procollagen-1 and HO-1 expression (24 h treatment), and c-Src activation and protein carbonylation (1 h treatment)."}, "c-Src [2]": {"tested_on": "c-Src", "test": "c-Src activation (pY418 c-Src/total c-Src) in primary cardiac fibroblasts", "assay_type": "cell-based, mouse", "experimental": "as §1\nas §2, with “Cells were treated with or without TCB (100 nM) to determine procollagen-1 and HO-1 expression (24 h treatment), and c-Src activation and protein carbonylation (1 h treatment).” left out"}, "ERK1/2 [3]": {"tested_on": "ERK1/2", "test": "ERK1/2 activation (phosphor-ERK/total ERK) in primary cardiac fibroblasts", "assay_type": "cell-based, mouse", "experimental": "as §1\nas §2, with “Cells were treated with or without TCB (100 nM) to determine procollagen-1 and HO-1 expression (24 h treatment), and c-Src activation and protein carbonylation (1 h treatment).” left out"}, "protein carbonylation [4]": {"tested_on": "protein carbonylation", "test": "Protein carbonylation in primary cardiac fibroblasts", "assay_type": "cell-based, mouse", "experimental": "as §1\nas §2, with “Cells were treated with or without TCB (100 nM) to determine procollagen-1 and HO-1 expression (24 h treatment), and c-Src activation and protein carbonylation (1 h treatment).” left out"}, "HO-1 [5]": {"tested_on": "HO-1", "test": "HO-1 expression in primary cardiac fibroblasts", "assay_type": "cell-based, mouse", "settings": "24 h", "experimental": "as §1\nas §2, with “Cells were treated with or without TCB (100 nM) to determine procollagen-1 and HO-1 expression (24 h treatment), and c-Src activation and protein carbonylation (1 h treatment).” left out"}, "[6]": {"tested_on": "PNx-induced cardiomyopathy, C57BL/6 mice", "test": "Transthoracic echocardiography, PNx mice (effects of CoPP and pNaKtide on PNx-induced cardiomyopathy)", "assay_type": "in vivo, mouse", "settings": "PNX + CoPP (5 mg/kg BW ip), n = 15, mean ± SE", "experimental": "Experimental designs: Male C57BL/6 10-12 weeks were purchased from Hill Top Laboratories and housed in pathogen free animal facility in designated rooms equipped with cages that supply purified air under a 12 hour light/dark cycle. Food and water were supplied ad libitum. Animal protocol was approved by the Marshall University Institutional Animal Care and Use Committee. The number of animals in each group was determined by Power analysis using the following assumptions derived from a previous study with mice, with variance of 0.2 within the groups, power of 0.80, and alpha error of 0.05. Effects of CoPP and […] on PNx-induced cardiomyopathy: Cobalt protoporphyrin (CoPP, Frontier Scientific, Logan, Utah) was used to induct HO-1 expression and […] was used to block the Na/K-ATPase signaling function. […] Transthoracic Echocardiography: Transthoracic echocardiography was performed 24 hours before sacrifice. […] Mice in supine position were placed on a heating pad to keep the body temperature at 37° C. Body core temperature and ECG for physiological monitoring were obtained and manipulated by using a Visualsonics Mouse Handling Table (11436) and a rectal thermometer. Echocardiographic images were captured using MS400: 18-38 MHz operating frequency MicroScan transducer attached to a Vevo 1100 Imaging System (FUJIFILM VisualSonics Inc.). Warmed echo gel was placed between the probe and shaved chest. B-mode and M-mode images of the heart were obtained from parasternal long axis and short axis. PW Doppler and Color Doppler were obtained from basal short axis. The average values were calculated from at least four consecutive cardiac cycles. Left-ventricular end-diastolic area (EDA), end-systolic area (ESA), as well as main pulmonary artery diameter was measured from B-mode. End-diastolic diameters (EDD), end-systolic diameters (ESD), as well as anterior and posterior wall thickness (AWT & PWT) were captured from M-mode. Isovolumic contraction and relaxation time (IVCT & IVRT), ejection time (ET), as well as pulmonary velocity time integral (VTI) were obtained from PW and color Doppler."}, "PNx mice [7]": {"tested_on": "PNx mice", "test": "Heart weight/body weight ratio, CoPP and pNaKtide study", "assay_type": "in vivo, mouse", "settings": "PNx + CoPP 5 mg/kg BW ip", "description": "Nephrectomy Mouse Model: The PNx model included two-step surgeries. […] Step-two surgery was operated 7 days later, in which the right kidney was removed. For sham surgery, the two-step surgeries were performed in the same way as in the PNx group, without ligation of left kidney and removal of right kidney.\nCoPP injections were given 5 days prior to, and on the day of, surgery, as well as every 5 days thereafter until sacrificing."}, "PNx mice [8]": {"tested_on": "PNx mice", "test": "Renal function: plasma cystatin C, creatinine and BUN, CoPP and pNaKtide study", "assay_type": "in vivo, mouse", "settings": "PNx + CoPP 5 mg/kg BW ip", "experimental": "Measurement of plasma cystatin C, creatinine and blood urea nitrogen (BUN): Mouse cystatin C ELISA kit and mouse creatinine kit were obtained from Crystal Chem. Inc. (Downers Grove, Ill.). Mouse BUN ELISA kit was obtained from MyBioSource Inc (San Diego, Calif.). The measurements were performed following manufacturers' instructions. Each sample was tested in duplicate."}, "[9]": {"tested_on": "PNx-induced cardiac fibrosis", "test": "Cardiac fibrosis by Sirius Red/Fast Green staining, CoPP and pNaKtide study", "assay_type": "in vivo, mouse", "settings": "PNx + CoPP 5 mg/kg BW ip; p<0.01 vs. PNx", "experimental": "Effects of CoPP and […] on PNx-induced cardiomyopathy: Cobalt protoporphyrin (CoPP, Frontier Scientific, Logan, Utah) was used to induct HO-1 expression and […] was used to block the Na/K-ATPase signaling function. […] Sirius Red/Fast Green staining: Histology staining for collagen fiber was performed on tissues harvested with Sirius Red/Fast Green Collagen Staining solutions (Sigma-Aldrich) according to the manufacturer's protocol. Tissues preparation, fixation, and data analysis were conducted as previously described."}, "collagen-1 [10]": {"tested_on": "collagen-1", "test": "Collagen-1 expression in left ventricle homogenates (western blot), CoPP and pNaKtide study", "assay_type": "in vivo, mouse", "settings": "LV homogenates; PNx + CoPP 5 mg/kg BW ip; p<0.01 vs PNx", "experimental": "as §1"}, "HO-1 [11]": {"tested_on": "HO-1", "test": "HO-1 expression in left ventricle homogenates (western blot), CoPP and pNaKtide study", "assay_type": "in vivo, mouse", "settings": "CoPP 5 mg/kg BW ip", "experimental": "as §1"}, "c-Src [12]": {"tested_on": "c-Src", "test": "c-Src activation in left ventricle homogenates, CoPP and pNaKtide study", "assay_type": "in vivo, mouse", "settings": "PNx + CoPP 5 mg/kg BW ip, 4 weeks after PNx; p<0.01 vs PNx", "experimental": "as §1"}, "ERK1/2 [13]": {"tested_on": "ERK1/2", "test": "ERK1/2 activation in left ventricle homogenates, CoPP and pNaKtide study", "assay_type": "in vivo, mouse", "settings": "PNx + CoPP 5 mg/kg BW ip, 4 weeks after PNx; p<0.01 vs PNx", "experimental": "as §1"}, "protein carbonylation [14]": {"tested_on": "protein carbonylation", "test": "Protein carbonylation in left ventricle homogenates, CoPP and pNaKtide study", "assay_type": "in vivo, mouse", "settings": "PNx + CoPP 5 mg/kg BW ip; p<0.01 vs PNx", "experimental": "as §1"}, "TBARS": {"tested_on": "TBARS", "test": "Thiobarbituric acid reactive substances (TBARS) in treated PNx mice", "assay_type": "in vivo, mouse", "settings": "PNx + CoPP 5 mg/kg BW ip"}, "[15]": {"settings": "CoPP 5 μM, 24 h pre-treatment, TCB 100 nM 1 h"}, "[16]": {"settings": "TCB 100 nM, 1 h, cardiac fibroblasts"}}}
{"smiles": "C=CC1=C(C)c2cc3[n-]c(cc4nc(cc5[n-]c(cc1n2)c(C)c5CCC(=O)[O-])C(CCC(=O)[O-])=C4C)c(C)c3C=C.[Co+2].[H+].[H+]", "note": "[CoPP, cobalt protoporphyrin]", "values": [{"measurement": "collagen-1 expression at baseline", "setting": "collagen-1 [1]; CoPP 5 μM, 24 h, no TCB, C57BL/6 mouse primary cardiac fibroblasts", "result": "did not significantly affect"}, {"measurement": "TCB induced increases in collagen-1 expression", "setting": "collagen-1 [1]; CoPP 5 μM, 24 h pre-treatment, TCB 100 nM 24 h, p<0.01 vs TCB alone", "result": "significantly ameliorated"}, {"measurement": "TCB induced activation of c-Src", "setting": "c-Src [2]; [15]", "result": "attenuated"}, {"measurement": "TCB induced activation of ERK1/2", "setting": "ERK1/2 [3]; [15]", "result": "attenuated"}, {"measurement": "TCB induced protein carbonylation", "setting": "protein carbonylation [4]; [15]", "result": "attenuated"}, {"measurement": "HO-1 induction", "setting": "HO-1 [5]; CoPP 5 μM, compared with TCB", "result": "considerably greater"}, {"measurement": "AWT, anterior wall thickness", "setting": "[6]", "result": "0.65 ± 0.01^$$ mm"}, {"measurement": "CO, cardiac output", "setting": "[6]", "result": "10.5 ± 0.3", "unit": "mL/min"}, {"measurement": "EDA, end diastolic area", "setting": "[6]", "result": "27.2 ± 0.6", "unit": "mm^2"}, {"measurement": "EDD, end diastolic dimension", "setting": "[6]", "result": "4.4 ± 0.1", "unit": "mm"}, {"measurement": "EF, ejection fraction", "setting": "[6]", "result": "60.0 ± 2.9", "unit": "%"}, {"measurement": "ESA, end systolic area", "setting": "[6]", "result": "19.0 ± 0.1", "unit": "mm^2"}, {"measurement": "ESD, end systolic dimension", "setting": "[6]", "result": "3.2 ± 0.1", "unit": "mm"}, {"measurement": "ET, ejection time", "setting": "[6]", "result": "44 ± 1.0", "unit": "ms"}, {"measurement": "FS, fractional shortening", "setting": "[6]", "result": "26.8 ± 1.7", "unit": "%"}, {"measurement": "HR, heart rate", "setting": "[6]", "result": "453 ± 11", "unit": "beat/min"}, {"measurement": "IVCT + IVRT, isovolumic contraction time + isovolumic relaxation time", "setting": "[6]", "result": "21 ± 0.7^$$ msec"}, {"measurement": "LVMI, left ventricle mass index", "setting": "[6]", "result": "4.0 ± 0.1^$$"}, {"measurement": "PWT, posterior wall thickness", "setting": "[6]", "result": "0.59 ± 0.02^$$ mm"}, {"measurement": "PaD, pulmonary artery dimension", "setting": "[6]", "result": "1.0 ± 0.02", "unit": "mm"}, {"measurement": "PaVTI, pulmonary artery Velocity time integral", "setting": "[6]", "result": "29.9 ± 0.5^$"}, {"measurement": "increase in heart weight/body weight ratio with PNx", "setting": "PNx mice [7]", "result": "not"}, {"measurement": "renal function as assessed by plasma cystatin C, creatinine, and BUN", "setting": "PNx mice [8]", "result": "neither CoPP nor pNaKtide effected significant changes"}, {"measurement": "PNx-induced cardiac fibrosis, Sirius Red/Fast Green staining", "setting": "[9]", "result": "significantly attenuated"}, {"measurement": "PNx-induced increases in cardiac collagen-1 expression", "setting": "collagen-1 [10]", "result": "reduced"}, {"measurement": "HO-1 expression in the LV homogenates", "setting": "HO-1 [11]", "result": "induced HO-1 expression most profoundly"}, {"measurement": "activation of c-Src in LV homogenates", "setting": "c-Src [12]", "result": "attenuated"}, {"measurement": "activation of ERK1/2 in LV homogenates", "setting": "ERK1/2 [13]", "result": "attenuated"}, {"measurement": "PNx-induced protein carbonylation in LV homogenates", "setting": "protein carbonylation [14]", "result": "reduced"}, {"measurement": "TBARS", "setting": "TBARS", "result": "consistent with the carbonylation data"}]}
{"smiles": "C[C@]12CC[C@H](O)C[C@@]1(O)CC[C@@H]1[C@@H]2CC[C@]2(C)[C@@H](c3ccc(=O)oc3)CC[C@]12O", "note": "[TCB, telecinobufagin]", "values": [{"measurement": "type I collagen (collagen-1) expression", "setting": "collagen-1 [1]; TCB 100 nM, 24 h, vs control, C57BL/6 mouse primary cardiac fibroblasts, p<0.01", "result": "induced increases"}, {"measurement": "activation of c-Src", "setting": "c-Src [2]; [16]", "result": "induced activation"}, {"measurement": "activation of ERK1/2", "setting": "ERK1/2 [3]; [16]", "result": "induced activation"}, {"measurement": "protein carbonylation", "setting": "protein carbonylation [4]; [16]", "result": "induced activation"}, {"measurement": "HO-1 expression", "setting": "HO-1 [5]; TCB 100 nM", "result": "increased"}]}
